Five compounds from PMC7531004, “Discovery of gramicidin A analogues with altered activities by multidimensional screening of a one-bead-one-compound library” (Nature Communications, 2020) can be followed below.

Where a SMILES comes first, the peptide text is derived from it. [ ]: non-standard residue; d: D form. The star is where a group is joined. NHCH2CH2OH = OCCN*; For = O=C*

Data set [1] in a line: H+/Na+ transport assay of bead-derived peptides (one-point).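 Note: relative to parent gramicidin A activity set to 1.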 The data set is classed as biochemical. Set-up: key: relative activity; mean of two control wells = 1.00. As to conditions: bead-derived peptide solution, EYPC/EYPG LUVs. The gist of the method:
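Miniaturized 96-well format. LUVs with entrapped pyranine (1.0 mM) were exposed to peptide for 30 min at RT. Intensities were expressed relative to full lysis by Triton X-100 and no treatment, with control-well mean = 1.00.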

Data set [2] has as its system Streptococcus pyogenes SSI-9. Kind of data set: Antibacterial activity assay of bead-derived peptides (three concentrations). The data set is classed as cell-based. Further details: key: +++: inhibition by the 640-fold diluted peptide solution; ++: inhibition by the 160-fold diluted solution; +: inhibition by the 40-fold diluted solution; -: no inhibition. As to conditions: S. pyogenes, bead-derived peptide solution, three concentrations. An outline of the steps: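 Growth inhibition scored visually as precipitated bacteria after 37 °C, 18 h incubation. Streptococcus pyogenes SSI-9 inoculum of 2 × 10^5 CFU in Ca2+/Mg2+-adjusted Mueller Hinton broth plus 5% laked horse blood; peptides tested at three levels: stock, 4-fold and 16-fold DMSO dilutions.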

Data set [3] concerns P388 mouse leukemia cells. As to conditions: 92 h. An outline of the steps:
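Peptide stocks diluted 250× in growth medium; P388 cells 1 × 10^4 cells/mL final; 37 °C, 5% CO2, 92 h. WST-1 + 1-methoxy PMS, 4 h, A415. Output: % viability.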

In the case of `CC(C)C[C@@H](NC(=O)[C@H](C)NC(=O)[C@H](NC(=O)[C@H](C)NC(=O)CNC(=O)[C@@H](NC=O)C(C)C)C(C)C)C(=O)N[C@H](C(=O)N[C@H](CC(C)C)C(=O)N[C@@H](Cc1c[nH]c2ccccc12)C(=O)N[C@H](CC(C)C)C(=O)N[C@@H](Cc1c[nH]c2ccccc12)C(=O)N[C@@H](C(=O)N[C@@H](Cc1c[nH]c2ccccc12)C(=O)N[C@@H](C(=O)N[C@@H](Cc1c[nH]c2ccccc12)C(=O)NCCO)C(C)C)C(C)C)C(C)C` [compound 11280] (For-VGA[dV]A[dL]V[dL]W[dL]W[dV]W[dV]W-NHCH2CH2OH), the “H+/Na+ transport activity normalized against the value of 1 (1.00)” value (shortened to “H+/Na+ transport activity normalized”) in data set [1] was 1.04. In data set [2], the antibacterial activity entry is reported as “-”. The compound further returned a cell viability/% in data set [3] of 9.9%.
With `CC(C)C[C@@H](NC(=O)[C@H](C)NC(=O)CNC(=O)[C@@H](NC=O)C(C)C)C(=O)N[C@@H](C)C(=O)N[C@H](CC(C)C)C(=O)N[C@H](C(=O)N[C@@H](C(=O)N[C@@H](Cc1c[nH]c2ccccc12)C(=O)N[C@H](CC(C)C)C(=O)N[C@@H](Cc1c[nH]c2ccccc12)C(=O)N[C@H](CC(C)C)C(=O)N[C@@H](Cc1c[nH]c2ccccc12)C(=O)N[C@@H](C(=O)N[C@@H](Cc1c[nH]c2ccccc12)C(=O)NCCO)C(C)C)[C@H](C)O)C(C)C` [compound 11295] (For-VGA[dL]A[dL]V[dT]W[dL]W[dL]W[dV]W-NHCH2CH2OH), the “H+/Na+ transport activity normalized” value in data set [1] is 1.12. In addition, the antibacterial activity result in data set [2] is “-”. Besides, the cell viability/% in data set [3] was 78.1%.
As to `CC(C)C[C@@H](NC(=O)[C@H](C)NC(=O)CNC(=O)[C@@H](NC=O)C(C)C)C(=O)N[C@@H](C)C(=O)N[C@@H](C(=O)N[C@H](C(=O)N[C@H](CC(C)C)C(=O)N[C@@H](Cc1c[nH]c2ccccc12)C(=O)N[C@H](CC(C)C)C(=O)N[C@@H](Cc1c[nH]c2ccccc12)C(=O)N[C@H](CC(C)C)C(=O)N[C@@H](Cc1c[nH]c2ccccc12)C(=O)N[C@@H](C(=O)N[C@@H](Cc1c[nH]c2ccccc12)C(=O)NCCO)C(C)C)C(C)C)[C@H](C)O` [compound 11302] (For-VGA[dL]A[dT]V[dL]W[dL]W[dL]W[dV]W-NHCH2CH2OH), the “H+/Na+ transport activity normalized” value in data set [1] is 1.05. In addition, in data set [2], the antibacterial activity entry is “-”. In addition, the cell viability/% in data set [3] came out at 49.1%.
Consider `CC(C)C[C@@H](NC(=O)[C@H](Cc1c[nH]c2ccccc12)NC(=O)[C@@H](CC(C)C)NC(=O)[C@@H](NC(=O)[C@H](NC(=O)[C@H](C)NC(=O)[C@H](NC(=O)[C@H](C)NC(=O)CNC(=O)[C@@H](NC=O)C(C)C)[C@H](C)O)C(C)C)C(C)C)C(=O)N[C@@H](Cc1c[nH]c2ccccc12)C(=O)N[C@H](CC(C)C)C(=O)N[C@@H](Cc1c[nH]c2ccccc12)C(=O)N[C@@H](C(=O)N[C@@H](Cc1c[nH]c2ccccc12)C(=O)NCCO)C(C)C` [compound 11317] (For-VGA[dT]A[dV]V[dL]W[dL]W[dL]W[dV]W-NHCH2CH2OH), for which the “H+/Na+ transport activity normalized” value in data set [1] is 1.02. In addition, in data set [2], the antibacterial activity entry is “-”. For the same compound, the cell viability/% in data set [3] is on record as 42.1%.
With `CC(C)C[C@@H](NC(=O)[C@H](C)NC(=O)CNC(=O)[C@@H](NC=O)C(C)C)C(=O)N[C@@H](C)C(=O)N[C@H](CC(C)C)C(=O)N[C@H](C(=O)N[C@H](CC(C)C)C(=O)N[C@@H](Cc1c[nH]c2ccccc12)C(=O)N[C@@H](C(=O)N[C@@H](Cc1c[nH]c2ccccc12)C(=O)N[C@@H](C(=O)N[C@@H](Cc1c[nH]c2ccccc12)C(=O)N[C@@H](C(=O)N[C@@H](Cc1c[nH]c2ccccc12)C(=O)NCCO)C(C)C)C(C)C)C(C)C)C(C)C` [compound 11323] (For-VGA[dL]A[dL]V[dL]W[dV]W[dV]W[dV]W-NHCH2CH2OH), the “H+/Na+ transport activity normalized” value in data set [1] was 1.02. Moreover, the antibacterial activity result in data set [2] is “-”. The same compound gave a cell viability/% in data set [3] of 5.2%.
